Results: US20090297545A1, “IMMUNOMODULATORY DAIRY PEPTIDES AND USES THEREOF” (Universite Laval, priority 2008, published 2009)
“And” between values parts separate entries of the source, which are not always exact repeats. Equal values may be shown once. Marks after values point to notes of the source that are not given here.

Assays:
Format in all cases: cell-based, BALB/c mice
murine splenocytes [1] = assay: In vitro murine splenocyte proliferation assay (Alamar Blue), Example III; details: for Effect on splenocyte proliferation in the presence of ConA at higher concentrations / Effect on ConA-induced proliferation at low concentrations: ConA 0.5 μg/mL; for Concentration at which stimulation of resting cell proliferation becomes significant: resting cells, dose-dependent up to 2000 μg/mL; for Effect on ConA-induced proliferation at low concentrations: 10 and 100 μg/mL
Protocol: In vitro murine splenocyte proliferation assay. The impact of whey peptides on splenocyte proliferation was assessed as follow. Spleens from 6-week-old female BALB/c mice (Charles River, St-Constant, QC, Canada) were removed, mechanically disrupted in complete RPMI-1640 medium (RPMI-1640 medium supplemented with 2 mmol L^−1 L-glutamine (Wisent, St-Bruno, QC, Canada), 10% foetal calf serum (FCS, Wisent), 50 μmol L^−1 mercaptoethanol (Sigma-Aldrich), and 100 μg mL^−1 of penicillin/streptomycin (Wisent), and then filtered through 70 μm cell strainer (BD Falcon, Bedford, Mass., USA) under aseptic conditions. Erythrocytes were lysed by osmotic shock using 0.87% NH4Cl (Sigma-Aldrich) for 2 min at 37° C., then cells were washed 3 times at 4° C. with complete RPMI. They were stained with 0.4% trypan blue (Celigro, Mediatech, Washington, D.C., USA) and counted using a Malassez chamber. The cell suspension was then adjusted to 1.25×10^6 viable cells mL^−1 in RPMI medium.
The cells (100 μL) were added to the wells of 96-well round-bottomed microplates containing 50 μL of RPMI, or 50 μL of peptide solutions. Various concentrations (10-2000 μg mL^−1) of the solutions, which were prepared in complete RPMI and adjusted to pH 7, were added to the wells. The same experiments were also performed in the presence of ConA (0.5 μg mL^−1) to evaluate the effects of the products on ConA-stimulated cells. The microplates with and without ConA were incubated for 72 h and 96 h, respectively. Cell proliferation was evaluated by the reduction of the fluorochrome Alamar Blue™ (BioSource international, Camarillo, Calif., USA), which was added to the wells (20 μL) for the last 24 h of the incubation periods. The fluorescence of the supernatants was monitored at an excitation wavelength of 544 nm and an emission wavelength of […] using a fluorometer (Fluoroscan Ascent, Thermo Electron Inc., Milford, Mass., USA). Data are expressed as a stimulation index (SI).

murine splenocytes [2] = assay: Cytokine profile of splenocyte supernatants, RayBio Mouse Cytokine Antibody Array; details: peptide 2000 μg/mL + ConA 0.5 μg/mL, 72 h; Cells + ConA = 1
Protocol: Cytokine analyses. After 72 hours, the supernatants from the splenocyte cultures with the cells, cells+ConA (0.5 μg/mL), and each of the peptides (2000 μg/mL) in the presence of ConA (0.5 μg/mL) were collected and stored at −20° C. until used for the cytokine detection assay. A cytokine profile analysis was performed by using the RayBio Mouse Cytokine Antibody Array G series 2 (RayBiotech, Inc., Norcross, Ga.), in order to obtain semi-quantitative levels of 32 different growth factors, cytokines and chemokines (Table 7).
Incubation protocol, signal detection, and interpretation of the data were performed according to manufacturer instructions. Results were expressed as the relative quantity of cytokines detected in the culture supernatants calculated according to the following equation: […]

murine splenocytes [3] = assay: Ex vivo murine splenocytes proliferation assay (Alamar Blue), Example I; details: for Stimulation index, proliferation of resting murine splenocytes: without ConA
Protocol: Ex vivo murine splenocytes proliferation assay. The splenocytes were isolated from 6- to 12-weeks-old female BALB/c mice (Charles River, St-Constant, QC, Canada) and cultured in the absence and presence of suboptimal concentration of ConA (0.5 μg/mL). The peptides were solubilized in complete RPMI medium, agitated overnight at 4° C. then the solutions were adjusted to pH 7. Thereafter, the peptide solutions were added at various final concentrations (10-2000 μg/mL, protein basis) to the wells of 96-well round-bottomed microplates, which were incubated at 37° C. at 80% relative humidity in a 5% CO2 atmosphere for 72 h (with ConA) or 96 h (without ConA). Cell proliferation was evaluated by the reduction of the fluorochrome Alamar Blue™ (BioSource international, Camarillo, Calif., USA), which was added into the wells for the last 24 h of the incubation periods. The fluorescence of the supernatants was monitored at an excitation wavelength of 560 nm and an emission wavelength of 590 nm using a fluorometer (Fluoroscan Ascent, Thermo Electron Inc., Milford, Mass., USA). The assays were performed in triplicate (three wells per sample) and data are expressed as stimulation indices (SI), and calculated using the following equations: […]

murine splenocytes [4] = assay: Cytokine secretion in splenocyte culture supernatants by ELISA, Example I
Protocol: Cytokine analysis. The supernatants from 72 h-splenocytes cultures were collected and their cytokine content was measured. The optimal incubation times were determined from preliminary assays with peptide fractions. The levels of IL-4, IL-10 and IFN-γ were determined using commercial ELISA kits (BioLegend, San Diego, Calif., USA) according to the manufacturer's instructions. Interleukin-2 levels were also measured by ELISA using a commercial kit (BioSource International, Camarillo, Calif., USA) according to the manufacturer's instructions. The results are the means of four or more assays (three wells per sample). The detection limits for IL-2, IL-4, IL-10 and IFN-γ were <8.0, <1.0, <30.0 and <4.0 pg/mL, respectively.
Cytokine analysis were performed at concentration leading to optimal spleen cells proliferation of peptide β-Lg f139-148 (SEQ ID NO. 1) (2000 μg/mL) as reported in Tables 2 and 3. The sequence β-Lg f78-83 (SEQ ID NO. 10), resulting in no effect on the cytokine secretion of resting- and ConA-stimulated murine splenocytes (results not shown), was used as control at concentration of 10 μg/mL for statistical analysis. The effects of the selected peptide on cytokine secretion from splenocytes cultured in the absence and presence of 0.5 μg/mL of ConA are shown in Table 5.

murine splenocytes [5] = assay: Ex vivo murine splenocytes proliferation assay (Alamar Blue), Example I; details: peptide 2000 μg/mL, FIG. 2
[6] = peptide 10 μg mL^−1, 72 h, ConA 0.5 μg/mL
[7] = splenocytes with ConA 0.5 μg mL^−1, peptide 2000 μg mL^−1
[8] = splenocytes without ConA, peptide 2000 μg mL^−1
[9] = splenocytes with ConA 0.5 μg mL^−1, control peptide 10 μg/mL
[10] = splenocytes without ConA, control peptide 10 μg/mL

Substance	Effect on splenocyte proliferation in the presence of ConA at higher concentrations (murine splenocytes [1])	Concentration at which stimulation of resting cell proliferation becomes significant (murine splenocytes [1]) [µg/mL]	Relative quantity of IFN-γ in supernatant (murine splenocytes [2])	Relative quantity of IL-2 in supernatant (murine splenocytes [2])	Relative quantity of IL-3 in supernatant (murine splenocytes [2])	Relative quantity of IL-4 in supernatant (murine splenocytes [2])	Relative quantity of IL-17 in supernatant (murine splenocytes [2])	Relative quantity of RANTES in supernatant (murine splenocytes [2])	Relative quantity of VEGF in supernatant (murine splenocytes [2])	other results
ALK (listed as Homo sapiens) [β-Lg f139-141]	lost their stimulating capacity	500	1.0	1.7	0.7	1	1.1	1.7	0.9	–
ALKALPMHIR (listed as Homo sapiens) [β-Lg f139-148]	–	–	–	–	–	–	–	–	–	Stimulation index, proliferation of murine splenocytes in the presence of Concavanalin A (murine splenocytes [3]; [6]): 2.28; Stimulation index, proliferation of resting murine splenocytes (murine splenocytes [3]; peptide 10 μg mL^−1, 96 h): 1.08*; Stimulation index, proliferation of murine splenocytes in the presence of Concavanalin A (murine splenocytes [3]; peptide 100 μg mL^−1, 72 h, ConA 0.5 μg/mL): 2.24; Stimulation index, proliferation of resting murine splenocytes (murine splenocytes [3]; peptide 100 μg mL^−1, 96 h): 1.17**; Stimulation index, proliferation of murine splenocytes in the presence of Concavanalin A (murine splenocytes [3]; peptide 500 μg mL^−1, 72 h, ConA 0.5 μg/mL): 2.36*; Stimulation index, proliferation of resting murine splenocytes (murine splenocytes [3]; peptide 500 μg mL^−1, 96 h): 1.35**; Stimulation index, proliferation of murine splenocytes in the presence of Concavanalin A (murine splenocytes [3]; peptide 1000 μg mL^−1, 72 h, ConA 0.5 μg/mL): 2.62**; Stimulation index, proliferation of resting murine splenocytes (murine splenocytes [3]; peptide 1000 μg mL^−1, 96 h): 1.53**; Stimulation index, proliferation of murine splenocytes in the presence of Concavanalin A (murine splenocytes [3]; peptide 2000 μg mL^−1, 72 h, ConA 0.5 μg/mL): 2.73**; Stimulation index, proliferation of resting murine splenocytes (murine splenocytes [3]; peptide 2000 μg mL^−1, 96 h): 1.77**; IFN-γ secretion in supernatant (murine splenocytes [4]; [7]): 717.5** pg mL^−1; IL-2 secretion in supernatant (murine splenocytes [4]; [7]): 15.8 pg/mL; IL-4 secretion in supernatant (murine splenocytes [4]; [7]): 3.0** pg mL^−1; IL-10 secretion in supernatant (murine splenocytes [4]; [7]): <30.0 pg/mL; IFN-γ secretion in supernatant (murine splenocytes [4]; [8]): 81.3** pg mL^−1; IL-2 secretion in supernatant (murine splenocytes [4]; [8]): 9.3 pg/mL; IL-4 secretion in supernatant (murine splenocytes [4]; [8]): <1.0 pg/mL; IL-10 secretion in supernatant (murine splenocytes [4]; [8]): <30.0 pg/mL
Asp-Thr-Asp-Tyr (DTDY; listed as Homo sapiens) [β-Lg f96-99]	lost their stimulating capacity	500	4.5	3.6	2.8	1.8	1.7	1.4	2.3	Effect on ConA-induced proliferation at low concentrations (murine splenocytes [1]): inhibited
DAQSAPLR [β-Lg f33-40]	–	–	0.7	0.6	0.1	0.7	0.6	0.4	0.8	–
GLDIQK (listed as Homo sapiens) [β-Lg f9-14]	lost their stimulating capacity	–	1.7	2.6	1.0	1.4	1.1	1.0	2.0	Effect on proliferation of resting splenocytes (murine splenocytes [1]; 10-2000 μg/mL, without ConA): only a small stimulation at the highest concentration
His-Ile-Arg (HIR; listed as Homo sapiens) [β-Lg f146-148]	lost their stimulating capacity	500	8.6	2.1	1.8	0.5	1.4	0.8	4.8	Stimulation index (SI), proliferation of resting splenocytes (murine splenocytes [1]; 500 μg/mL, without ConA): 1.20; Stimulation index (SI), proliferation of resting splenocytes (murine splenocytes [1]; 1000 μg/mL, without ConA): 1.36; Stimulation index (SI), proliferation of resting splenocytes (murine splenocytes [1]; 2000 μg/mL, without ConA): 1.37; Effect on ConA-induced proliferation at low concentrations (murine splenocytes [1]): inhibited
IPAVFK (listed as Homo sapiens) [β-Lg f78-83, β-lactoglobulin fragment 78-83 used as control peptide, reference compound]	–	–	–	–	–	–	–	–	–	Effect on the proliferation of ConA-stimulated murine splenocytes (murine splenocytes [3]; all concentrations studied (10-2000 μg/mL), ConA 0.5 μg/mL, FIG. 1B): no effect; Effect on the proliferation of resting murine splenocytes (murine splenocytes [3]; all concentrations studied (10-2000 μg/mL), FIG. 1A): no effect; Stimulation index, proliferation of murine splenocytes in the presence of Concavanalin A (murine splenocytes [3]; [6]): 2.10 and 1.91 and 1.93 and 1.68; Stimulation index, proliferation of resting murine splenocytes (murine splenocytes [3]; peptide 10 μg mL^−1, 96 h): 0.98 and 1.00 and 1.11 and 1.02 and 1.04; Effect on the cytokine secretion of resting- and ConA-stimulated murine splenocytes (murine splenocytes [4]; results not shown): no effect; IFN-γ secretion in supernatant (murine splenocytes [4]; [9]): 252.9 pg/mL; IL-2 secretion in supernatant (murine splenocytes [4]; [9]): 15.6 pg/mL; IL-4 secretion in supernatant (murine splenocytes [4]; [9]): 4.4 pg/mL; IL-10 secretion in supernatant (murine splenocytes [4]; [9]): <30.0 pg/mL; IFN-γ secretion in supernatant (murine splenocytes [4]; [10]): 7.1 pg/mL; IL-2 secretion in supernatant (murine splenocytes [4]; [10]): 10.0 pg/mL; IL-4 secretion in supernatant (murine splenocytes [4]; [10]): <1.0 pg/mL; IL-10 secretion in supernatant (murine splenocytes [4]; [10]): <30.0 pg/mL; Microscopic appearance of resting- and ConA-stimulated cultured cells (murine splenocytes [5]): no effect on the appearance of cultured cells
